One data set concerns Phospholipidosis.
Settings: not given
Consider `CN(C)CCN(Cc1cccs1)c1ccccn1`, for which the Phospholipidosis entry was “Not Active”.

In the case of `CC1=C(CC(=O)O)c2cc(F)ccc2/C1=C\c1ccc([S+](C)[O-])cc1` (stereo unspecified), the Phospholipidosis result is given as “Not Active”.

Regarding `C=C1C[C@@H]1C[C@H](N)C(=O)O`, the Phospholipidosis result is reported as “Not Active”.

For `S=C=Nc1cccc2ccccc12` [1-NAPHTHYLISOTHIOCYANATE], the Phospholipidosis result is “Not Active”.

With `Cc1ccc2cc3c(ccc4ccccc43)c3c2c1CC3` [3-METHYLCHOLANTHRENE], the Phospholipidosis entry is reported as “Not Active”.

Consider `Nc1nc(NC2CC2)c2ncn([C@H]3C=C[C@@H](CO)C3)c2n1` [ABACAVIR], for which the Phospholipidosis entry is “Not Active”.

As for `CC(=O)Nc1ccc(O)cc1` [ACETAMINOPHEN], the Phospholipidosis result was “Not Active”.

In the case of `O=C(O)CCCCCCNC1c2ccccc2CCc2ccccc21` [AMINEPTINE], the Phospholipidosis entry is listed as “Not Active”.

Consider `CC(=O)Oc1ccccc1C(=O)O` [ASPIRIN], for which the Phospholipidosis entry was “Not Active”.

In the case of `Cl.Cl.O=C(CCN1CCN2CCCC2C1)N1c2ccccc2Sc2ccc(Cl)cc21` (stereo unspecified) [AZACLORZINE HYDROCHLORIDE], the Phospholipidosis result is “Not Active”.

With `[N-]=[N+]=CC(=O)OC[C@H](N)C(=O)O` [AZASERINE], the Phospholipidosis result is given as “Not Active”.

For `CC(O)(CS(=O)(=O)c1ccc(F)cc1)C(=O)Nc1ccc(C#N)c(C(F)(F)F)c1` (stereo unspecified) [BICALUTAMIDE], the Phospholipidosis entry was “Not Active”.

For the molecule `CC(NC(C)(C)C)C(=O)c1cccc(Cl)c1` (stereo unspecified) [BUPROPION], the Phospholipidosis result is “Not Active”.

With `Cn1c(=O)c2c(ncn2C)n(C)c1=O` [CAFFEINE], the Phospholipidosis result is “Not Active”.

As for `NC(=O)N1c2ccccc2C=Cc2ccccc21` [CARBAMAZEPINE], the Phospholipidosis result is on record as “Not Active”.

`ClC(Cl)(Cl)Cl` [CARBON TETRACHLORIDE]: the Phospholipidosis entry is given as “Not Active”.

`CC(C)(O/N=C(\C(=O)N[C@@H]1C(=O)N2C(C(=O)[O-])=C(C[n+]3ccccc3)CS[C@H]12)c1csc(N)n1)C(=O)O` [CEFTAZIDIME]: the Phospholipidosis result is on record as “Not Active”.

Regarding `ClC(Cl)Cl` [CHLOROFORM], the Phospholipidosis result is “Not Active”.

In the case of `CN(C)[C@@H]1C(O)=C(C(N)=O)C(=O)[C@@]2(O)C(O)=C3C(=O)c4c(O)ccc(Cl)c4[C@@](C)(O)[C@H]3C[C@@H]12` [CHLORTETRACYCLINE], the Phospholipidosis entry is “Not Active”.

Regarding `CC(C)(Oc1ccc(C2CC2(Cl)Cl)cc1)C(=O)O` (stereo unspecified) [CIPROFIBRATE], the Phospholipidosis entry was “Not Active”.

For `CCOC(=O)C(C)(C)Oc1ccc(Cl)cc1` [CLOFIBRATE], the Phospholipidosis result is listed as “Not Active”.

In the case of `COc1cc2c(c(OC)c1OC)-c1ccc(OC)c(=O)cc1[C@@H](NC(C)=O)CC2` [COLCHICINE], the Phospholipidosis result is recorded as “Not Active”.

Turning to `CC(=O)O[C@]1(C(C)=O)CC[C@H]2[C@@H]3C=C(Cl)C4=CC(=O)[C@@H]5C[C@@H]5[C@]4(C)[C@H]3CC[C@@]21C` [CYPROTERONE ACETATE], the Phospholipidosis result is reported as “Not Active”.

Regarding `O=C1CN(/N=C/c2ccc(-c3ccc([N+](=O)[O-])cc3)o2)C(O)=N1` [DANTROLENE], the Phospholipidosis entry is recorded as “Not Active”.

`CC(=O)N(O)CCCCCNC(=O)CCC(=O)N(O)CCCCCNC(=O)CCC(=O)N(O)CCCCCN` [DEFEROXAMINE]: the Phospholipidosis entry was “Not Active”.

Regarding `CN(C)[C@@H]1C(O)=C(C(N)=O)C(=O)[C@@]2(O)C(O)=C3C(=O)c4c(O)ccc(Cl)c4[C@@H](O)[C@H]3C[C@@H]12` [DEMECLOCYCLINE], the Phospholipidosis result is “Not Active”.

For the molecule `O=C(O)Cc1ccccc1Nc1c(Cl)cccc1Cl` [DICLOFENAC], the Phospholipidosis result is given as “Not Active”.

Consider `O=C(O)c1cc(-c2ccc(F)cc2F)ccc1O` [DIFLUNISAL], for which the Phospholipidosis entry is “Not Active”.

In the case of `COc1cc2c(cc1OC)C(=O)C(CC1CCN(Cc3ccccc3)CC1)C2` (stereo unspecified) [DONEPEZIL], the Phospholipidosis entry is recorded as “Not Active”.

`CCN1CC(CCN2CCOCC2)C(c2ccccc2)(c2ccccc2)C1=O` (stereo unspecified) [DOXAPRAM]: the Phospholipidosis entry is on record as “Not Active”.

Regarding `C[C@H]1c2cccc(O)c2C(=O)C2=C(O)[C@]3(O)C(=O)C(C(N)=O)=C(O)[C@@H](N(C)C)[C@@H]3[C@@H](O)[C@@H]21.O` [DOXYCYCLINE], the Phospholipidosis result is “Not Active”.

Regarding `C#C[C@]1(O)CC[C@H]2[C@@H]3CCc4cc(O)ccc4[C@H]3CC[C@@]21C` [ETHINYL ESTRADIOL], the Phospholipidosis result is on record as “Not Active”.

For `CCSCC[C@H](N)C(=O)O` [ETHIONINE], the Phospholipidosis entry is recorded as “Not Active”.

As to `COc1cc([C@@H]2c3cc4c(cc3[C@@H](O[C@@H]3O[C@@H]5CO[C@@H](C)O[C@H]5[C@H](O)[C@H]3O)[C@H]3COC(=O)[C@H]23)OCO4)cc(OC)c1O` [ETOPOSIDE], the Phospholipidosis result is given as “Not Active”.

With `NC(N)=Nc1nc(CSCCC(N)=NS(N)(=O)=O)cs1` [FAMOTIDINE], the Phospholipidosis entry is reported as “Not Active”.

`NC(=O)OCC(COC(N)=O)c1ccccc1` [FELBAMATE]: the Phospholipidosis result is given as “Not Active”.

For `CC(C)OC(=O)C(C)(C)Oc1ccc(C(=O)c2ccc(Cl)cc2)cc1` [FENOFIBRATE], the Phospholipidosis result is reported as “Not Active”.

For the molecule `CC(C)C(=O)Nc1ccc([N+](=O)[O-])c(C(F)(F)F)c1` [FLUTAMIDE], the Phospholipidosis entry is reported as “Not Active”.

Consider `Cc1ccc(C)c(OCCCC(C)(C)C(=O)O)c1` [GEMFIBROZIL], for which the Phospholipidosis entry is reported as “Not Active”.

As to `N[C@H]1C(O)O[C@H](CO)[C@@H](O)[C@@H]1O` (stereo partly specified) [GLUCOSAMINE], the Phospholipidosis entry was “Not Active”.

As to `NN` [HYDRAZINE], the Phospholipidosis result was “Not Active”.

On to `NC(=O)NO` [HYDROXYUREA], for which the Phospholipidosis entry is on record as “Not Active”.

For the molecule `CN(C)C(=N)N=C(N)N` [METFORMIN], the Phospholipidosis entry is reported as “Not Active”.

For `CCC(=O)C(CC(C)N(C)C)(c1ccccc1)c1ccccc1` (stereo unspecified) [METHADONE], the Phospholipidosis result was “Not Active”.

Take `CN(Cc1cnc2nc(N)nc(N)c2n1)c1ccc(C(=O)N[C@@H](CCC(=O)O)C(=O)O)cc1` [METHOTREXATE]: the Phospholipidosis entry was “Not Active”.

In the case of `C[C@](N)(Cc1ccc(O)c(O)c1)C(=O)O` [METHYLDOPA], the Phospholipidosis entry is “Not Active”.

As to `CCC1(c2ccccc2)C(=O)NC(=O)NC1=O` [PHENOBARBITAL], the Phospholipidosis entry is on record as “Not Active”.

Turning to `CNC(=O)Oc1ccc2c(c1)[C@]1(C)CCN(C)[C@@H]1N2C` [PHYSOSTIGMINE], the Phospholipidosis result is “Not Active”.

Turning to `Cc1cccc(Nc2cc(Cl)nc(SCC(=O)O)n2)c1C` [PIRINIXIC ACID], the Phospholipidosis result is “Not Active”.

In the case of `CN1C(C(=O)Nc2ccccn2)=C(O)c2ccccc2S1(=O)=O` [PIROXICAM], the Phospholipidosis result is listed as “Not Active”.

In the case of `CCN(CC)CCOC(=O)c1ccc(N)cc1` [PROCAINE], the Phospholipidosis entry was “Not Active”.

For `CO[C@H]1/C=C/O[C@@]2(C)Oc3c(C)c(O)c4c(O)c(c(/C=N/N5CCN(C)CC5)c(O)c4c3C2=O)NC(=O)/C(C)=C\C=C\[C@H](C)[C@H](O)[C@@H](C)[C@@H](O)[C@@H](C)[C@H](OC(C)=O)[C@@H]1C` [RIFAMPIN], the Phospholipidosis result is given as “Not Active”.

Turning to `CN(C)[C@@H]1C(O)=C(C(=O)NCN2CCCC2)C(=O)[C@@]2(O)C(O)=C3C(=O)c4c(O)cccc4[C@@](C)(O)[C@H]3C[C@@H]12` [ROLITETRACYCLINE], the Phospholipidosis result is listed as “Not Active”.

For `Cc1cn([C@H]2C=C[C@@H](CO)O2)c(=O)[nH]c1=O` [STAVUDINE], the Phospholipidosis entry is given as “Not Active”.

In the case of `N=C(N)NCCCCCCCCCCNC(=N)N` [SYNTHALIN], the Phospholipidosis entry was “Not Active”.

With `Nc1c2c(nc3ccccc13)CCCC2` [TACRINE], the Phospholipidosis entry is “Not Active”.

With `Cn1nnc2c(C(N)=O)ncn2c1=O` [TEMOZOLOMIDE], the Phospholipidosis entry is given as “Not Active”.

For the molecule `CC(=N)S` [THIOACETAMIDE], the Phospholipidosis entry was “Not Active”.

As to `CCCC(CCC)C(=O)[O-].[Na+]` [VALPROATE SODIUM], the Phospholipidosis entry was “Not Active”.

In the case of `Cc1cn([C@H]2C[C@H](N=[N+]=[N-])[C@@H](CO)O2)c(=O)[nH]c1=O` [ZIDOVUDINE], the Phospholipidosis entry is given as “Not Active”.

As to `CC(c1cc2ccccc2s1)N(O)C(N)=O` (stereo unspecified) [ZILEUTON], the Phospholipidosis entry is listed as “Not Active”.

The test system of another data set is Phospholipidosis. Conditions: rat.
On to `CN1CCN(Cc2nc3cccc4c3c([n+]2[O-])-c2ccccc2-4)CC1`, for which the Phospholipidosis entry was “Active”.

In the case of `CN(C)CCC=C1c2ccccc2CCc2c(Cl)cccc21`, the Phospholipidosis entry is reported as “Active”.

Turning to `OC(CN1CCCCC1)c1ccc(C=C2c3ccccc3-c3ccccc32)cc1` (stereo unspecified), the Phospholipidosis result is given as “Active”.

Turning to `CCCC[C@@H]1CC(=O)[C@]2(O)O[C@@H]3[C@@H](NC)[C@@H](O)[C@@H](NC)[C@H](O)[C@H]3O[C@@H]2O1.O=S(=O)(O)O`, the Phospholipidosis result is “Active”.

On to `CN1CCN(C2=Nc3cc(Cl)ccc3N(C)n3cccc32)CC1`, for which the Phospholipidosis result is on record as “Active”.

Turning to `CN(C)CCC=C1c2ccccc2C=Cc2c(Cl)cccc21`, the Phospholipidosis entry is on record as “Active”.

Regarding `CCN(CC)CCn1nc2c3c(c(C)ccc31)Sc1cc(Cl)ccc1-2`, the Phospholipidosis entry is given as “Active”.

For `NC[C@H]1Cc2ccc(F)cc2[C@@H](c2ccccc2)O1`, the Phospholipidosis entry is recorded as “Active”.

As to `NCC[C@H](O)C(=O)N[C@@H]1C[C@H](N)[C@@H](O[C@H]2O[C@H](CN)[C@@H](O)[C@H](O)[C@H]2O)[C@H](O)[C@H]1O[C@H]1O[C@H](CO)[C@@H](O)[C@H](N)[C@H]1O` [AMIKACIN], the Phospholipidosis result is “Active”.

On to `CN(C)CCC=C1c2ccccc2CCc2ccccc21` [AMITRIPTYLINE], for which the Phospholipidosis result was “Active”.

On to `FC(F)(F)c1ccc(-c2ccc(OCCN3CCCC3)cc2)cc1` [BOXIDINE], for which the Phospholipidosis entry is reported as “Active”.

Regarding `CN1CCN(C(c2ccccc2)c2ccc(Cl)cc2)CC1` (stereo unspecified) [CHLORCYCLIZINE], the Phospholipidosis result is on record as “Active”.

As for `CN(C)CCCC1(c2ccc(F)cc2)OCc2cc(C#N)ccc21` (stereo unspecified) [CITALOPRAM], the Phospholipidosis result is reported as “Active”.

As to `CN(C)CCCC1c2ccccc2Nc2ccc(Cl)cc21` (stereo unspecified) [CLOMACRAN], the Phospholipidosis result is listed as “Active”.

On to `CN(C)CCCN1c2ccccc2CCc2ccc(Cl)cc21` [CLOMIPRAMINE], for which the Phospholipidosis result was “Active”.

The record behind these values is ChEMBL document CHEMBL1615345, “Evaluation of a published in silico model and construction of a novel Bayesian model for predicting phospholipidosis inducing potential” (J Chem Inf Model, 2007).
